Data from patent US8778872B2 (priority 2010, dated 2014).
Read-outs that look alike come from different tables or passages of the source. One block for each compound: values may come before it. Where a SMILES comes first, the peptide text is derived from it. Where no end group is shown, it is not given here. Side-chain parts run from the residue outwards. [ ]: non-standard residue; d: D form. Ac6c = NC1(C(=O)O)CCCCC1; Ac3c = NC1(C(=O)O)CC1; Aib = CC(C)(N)C(=O)O; PEG40k = 40 kDa PEG; Sar = CNCC(=O)O

Tests used:
[1] = target: T1, GLP-1 receptor (Homo sapiens, UniProt P43220); experiment: Luciferase-based reporter gene assay for cAMP detection, HEK293 cells co-transfected with GLP-1 receptor (prodrug samples pre-incubated in PBS or plasma); type: cell-based
T1 construct: expressed in transfected cells; host or cells: HEK293

[2] = Dipeptide cleavage half time in PBS on model hexapeptide (HPLC / LC-MS); settings: for Relative peak area(%), HPLC peak a / Relative peak area(%), HPLC peak b: PBS; for Relative peak area(%), HPLC peak a: peak a MW 702; for Relative peak area(%), HPLC peak b: peak b MW 902; for half-life: buffer
[3] = buffer

T1 sequence (P43220 24-463, species assumed): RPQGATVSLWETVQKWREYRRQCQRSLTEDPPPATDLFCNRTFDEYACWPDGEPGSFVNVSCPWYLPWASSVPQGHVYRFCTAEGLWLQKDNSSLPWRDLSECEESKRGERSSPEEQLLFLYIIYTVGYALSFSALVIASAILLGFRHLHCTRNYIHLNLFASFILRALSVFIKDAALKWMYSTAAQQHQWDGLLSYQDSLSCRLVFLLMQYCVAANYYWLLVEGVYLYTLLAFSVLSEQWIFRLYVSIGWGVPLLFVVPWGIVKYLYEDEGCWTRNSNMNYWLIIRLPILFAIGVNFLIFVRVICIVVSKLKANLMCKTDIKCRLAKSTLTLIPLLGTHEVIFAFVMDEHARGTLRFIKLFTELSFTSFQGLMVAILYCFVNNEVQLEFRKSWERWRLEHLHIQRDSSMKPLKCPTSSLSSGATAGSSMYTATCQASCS

EC50%/STD ratio ([1]; prodrug incubated in PBS at 37° C. for 30 h): 17.31%
EC50%/STD ratio ([1]; prodrug incubated in PBS at 37° C. for 54 h): 27.74%
EC50%/STD ratio ([1]; prodrug incubated in PBS at 37° C. for 240 h): 66.49%
EC50%/STD ratio ([1]; prodrug incubated in PBS at 37° C. for […]): 55.90%
Compound: 40 kPEG-Aib^−1-P^0,C^24GLP(7-36): Aib^−1-P^0,C^24GLP(7-36) pegylated by maleimido-functioned 40 k Da PEG on the SH group of 24-Cys ([Aib]PHAEGTFTSDVSSYLEGQAAKEFIC([maleimide-PEG40k])WLVKGR)

Compound: C[C@@H](O)[C@H](NC(=O)CNC(=O)[C@H](CCCNC(=N)N)NC(=O)[C@H](CO)NC(=O)[C@H](Cc1c[nH]cn1)NC(=O)CN(C)C(=O)[C@@H](N)CCCCN)C(=O)N[C@@H](Cc1ccccc1)C(N)=O [A peptide, lys-sar-HSRGTF-NH2] (H-K[Sar]HSRGTF-NH2; N-terminus assumed)
Relative peak area(%), HPLC peak a ([2]; 5 h): 26.5%
Relative peak area(%), HPLC peak b ([2]; 5 h): 73.5%
Relative peak area(%), HPLC peak a ([2]; 8 h): 28.9%
Relative peak area(%), HPLC peak b ([2]; 8 h): 71.1%
Relative peak area(%), HPLC peak a ([2]; 24 h): 28.8%
Relative peak area(%), HPLC peak b ([2]; 24 h): 71.2%
Relative peak area(%), HPLC peak a ([2]; 31 h): 77.7%
Relative peak area(%), HPLC peak b ([2]; 31 h): 22.3%
Relative peak area(%), HPLC peak a ([2]; 47 h): 90.0%
Relative peak area(%), HPLC peak b ([2]; 47 h): 10.0%

half-life [2]: 58 h
Compound: C[C@@H](O)[C@H](NC(=O)CNC(=O)[C@H](CCCNC(=N)N)NC(=O)[C@H](CO)NC(=O)[C@H](Cc1c[nH]cn1)NC(=O)[C@@H](N)Cc1ccc(NC(=O)[C@@H]2CCCN2C(=O)[C@@H](N)Cc2ccccc2)cc1)C(=O)N[C@@H](Cc1ccccc1)C(N)=O [Compounds 1]

half-life [2]: 20 h
Compound: C[C@@H](O)[C@H](NC(=O)CNC(=O)[C@H](CCCNC(=N)N)NC(=O)[C@H](CO)NC(=O)[C@H](Cc1c[nH]cn1)NC(=O)[C@@H](N)Cc1ccc(NC(=O)[C@@H]2CCCN2C(=O)[C@H](N)Cc2ccccc2)cc1)C(=O)N[C@@H](Cc1ccccc1)C(N)=O [Compounds 3]

half-life [2]: 39 h
Compound: C[C@@H](O)[C@H](NC(=O)CNC(=O)[C@H](CCCNC(=N)N)NC(=O)[C@H](CO)NC(=O)[C@H](Cc1c[nH]cn1)NC(=O)[C@@H](N)Cc1ccc(NC(=O)[C@H]2CCCN2C(=O)[C@H](N)Cc2ccccc2)cc1)C(=O)N[C@@H](Cc1ccccc1)C(N)=O [Compounds 4]

half-life [2]: 72 h
Compound: C[C@@H](O)[C@H](NC(=O)CNC(=O)[C@H](CCCNC(=N)N)NC(=O)[C@H](CO)NC(=O)[C@H](Cc1c[nH]cn1)NC(=O)[C@@H](N)Cc1ccc(NC(=O)[C@@H]2CCCN2C(=O)CN)cc1)C(=O)N[C@@H](Cc1ccccc1)C(N)=O [Compounds 5]

half-life [2]: 603 h
Compound: C[C@@H](O)[C@H](NC(=O)CNC(=O)[C@H](CCCNC(=N)N)NC(=O)[C@H](CO)NC(=O)[C@H](Cc1c[nH]cn1)NC(=O)[C@@H](N)Cc1ccc(NC(=O)[C@@H]2CCCN2C(=O)CO)cc1)C(=O)N[C@@H](Cc1ccccc1)C(N)=O [Compounds 6]

half-life [2]: 62 h
Compound: CC(C)C[C@H](N)C(=O)N1CCC[C@H]1C(=O)Nc1ccc(C[C@H](N)C(=O)N[C@@H](Cc2c[nH]cn2)C(=O)N[C@@H](CO)C(=O)N[C@@H](CCCNC(=N)N)C(=O)NCC(=O)N[C@H](C(=O)N[C@@H](Cc2ccccc2)C(N)=O)[C@@H](C)O)cc1 [Compounds 7]

Compound: C[C@@H](O)[C@H](NC(=O)CNC(=O)[C@H](CCCNC(=N)N)NC(=O)[C@H](CO)NC(=O)[C@H](Cc1c[nH]cn1)NC(=O)[C@@H](N)Cc1ccc(NC(=O)[C@@H]2CCCN2C(=O)[C@@H](N)C(C)(C)C)cc1)C(=O)N[C@@H](Cc1ccccc1)C(N)=O [Compounds 8]
half-life [3]: 200 h

half-life [2]: 34 h
Compound: C[C@@H](O)[C@H](NC(=O)CNC(=O)[C@H](CCCNC(=N)N)NC(=O)[C@H](CO)NC(=O)[C@H](Cc1c[nH]cn1)NC(=O)[C@@H](N)Cc1ccc(NC(=O)[C@@H]2CCCN2C(=O)[C@@H](N)CO)cc1)C(=O)N[C@@H](Cc1ccccc1)C(N)=O [Compounds 9]

half-life [2]: 97 h
Compound: C[C@@H](O)[C@H](NC(=O)CNC(=O)[C@H](CCCNC(=N)N)NC(=O)[C@H](CO)NC(=O)[C@H](Cc1c[nH]cn1)NC(=O)[C@@H](N)Cc1ccc(NC(=O)[C@@H]2CCCN2C(=O)[C@@H]2CCCN2)cc1)C(=O)N[C@@H](Cc1ccccc1)C(N)=O [Compounds 10]

half-life [2]: 33 h
Compound: C[C@@H](O)[C@H](NC(=O)CNC(=O)[C@H](CCCNC(=N)N)NC(=O)[C@H](CO)NC(=O)[C@H](Cc1c[nH]cn1)NC(=O)[C@@H](N)Cc1ccc(NC(=O)[C@@H]2CCCN2C(=O)[C@@H](N)CCCCN)cc1)C(=O)N[C@@H](Cc1ccccc1)C(N)=O [Compounds 11]

half-life [2]: 11 h
Compound: C[C@@H](O)[C@H](NC(=O)CNC(=O)[C@H](CCCNC(=N)N)NC(=O)[C@H](CO)NC(=O)[C@H](Cc1c[nH]cn1)NC(=O)[C@@H](N)Cc1ccc(NC(=O)[C@@H]2CCCN2C(=O)[C@H](N)CCCCN)cc1)C(=O)N[C@@H](Cc1ccccc1)C(N)=O [Compounds 12]

half-life [2]: 85 h
Compound: C[C@@H](O)[C@H](NC(=O)CNC(=O)[C@H](CCCNC(=N)N)NC(=O)[C@H](CO)NC(=O)[C@H](Cc1c[nH]cn1)NC(=O)[C@@H](N)Cc1ccc(NC(=O)[C@@H]2CCCN2C(=O)[C@@H](N)CCC(=O)O)cc1)C(=O)N[C@@H](Cc1ccccc1)C(N)=O [Compounds 13]

half-life [2]: ~1000 h
Compound: CNCC(=O)N1CCC[C@H]1C(=O)Nc1ccc(C[C@H](N)C(=O)N[C@@H](Cc2c[nH]cn2)C(=O)N[C@@H](CO)C(=O)N[C@@H](CCCNC(=N)N)C(=O)NCC(=O)N[C@H](C(=O)N[C@@H](Cc2ccccc2)C(N)=O)[C@@H](C)O)cc1 [Compounds 14]

Compound: C[C@@H](O)[C@H](NC(=O)CNC(=O)[C@H](CCCNC(=N)N)NC(=O)[C@H](CO)NC(=O)[C@H](Cc1c[nH]cn1)NC(=O)[C@@H](N)Cc1ccc(NC(=O)[C@@H]2CCCN2C(=O)C(C)(C)N)cc1)C(=O)N[C@@H](Cc1ccccc1)C(N)=O [Compounds 15]
half-life [3]: 1.15 h

Compound: C[C@@H](O)[C@H](NC(=O)CNC(=O)[C@H](CCCNC(=N)N)NC(=O)[C@H](CO)NC(=O)[C@H](Cc1c[nH]cn1)NC(=O)[C@@H](N)Cc1ccc(NC(=O)[C@@H]2CCCN2C(=O)C(C)(C)O)cc1)C(=O)N[C@@H](Cc1ccccc1)C(N)=O [Compounds 16]
half-life [3]: 33 h

Compound: C[C@@H](O)[C@H](NC(=O)CNC(=O)[C@H](CCCNC(=N)N)NC(=O)[C@H](CO)NC(=O)[C@H](Cc1c[nH]cn1)NC(=O)[C@@H](N)Cc1ccc(NC(=O)[C@@H]2CCCN2C(=O)C2(N)CCCCC2)cc1)C(=O)N[C@@H](Cc1ccccc1)C(N)=O [Compounds 17]
half-life [3]: 0.1 h

half-life [2]: 5 h
Compound: C[C@@H](O)[C@H](NC(=O)CNC(=O)[C@H](CCCNC(=N)N)NC(=O)[C@H](CO)NC(=O)[C@H](Cc1c[nH]cn1)NC(=O)[C@@H]1CCCN1C(=O)C1(N)CCCCC1)C(=O)N[C@@H](Cc1ccccc1)C(N)=O [Peptide 17] (H-[Ac6c]PHSRGTF-NH2)

half-life [2]: 10 h
Compound: C[C@@H](O)[C@H](NC(=O)CNC(=O)[C@H](CCCNC(=N)N)NC(=O)[C@H](CO)NC(=O)[C@H](Cc1c[nH]cn1)NC(=O)[C@@H]1CCCN1C(=O)C1(N)CC1)C(=O)N[C@@H](Cc1ccccc1)C(N)=O [Peptide 18] (H-[Ac3c]PHSRGTF-NH2)
